We go through 24 compounds from ChEMBL document CHEMBL3217516, “Library synthesis and cytotoxicity of a family of 2-phenylacrylonitriles and discovery of an estrogen dependent breast cancer lead compound” (Medchemcomm, 2011).

Where only a bound is given, the exact number is not on record here.

What all share (format): functional
For assay [1], the system named is SW480. Nature of the assay: Cytotoxicity against human SW480 cells after 72 hrs by MTT assay. Particulars: SW480, 72 h.
Assay [2] has as its system MCF7. In words: Cytotoxicity against human MCF7 cells after 72 hrs by MTT assay. Particulars: MCF7, 72 h. (Tetrazolium dyes change colour on reduction, which living cells bring about.)
For assay [3], the system named is A2780. In words: Cytotoxicity against human A2780 cells after 72 hrs by MTT assay. The settings on record: A2780, 72 h.
The subject of assay [4] is HT-29. Nature of the assay: Cytotoxicity against human HT-29 cells after 72 hrs by MTT assay. Particulars: HT-29, 72 h.
Assay [5] in a line: Cytotoxicity against human MIA cells after 72 hrs by MTT assay.
A short description of assay [6]: Cytotoxicity against human H460 cells after 72 hrs by MTT assay. Particulars: NCI-H460, 72 h.
Assay [7] can be described thus: Cytotoxicity against human SJ-G2 cells after 72 hrs by MTT assay. Particulars: SJ-G2, 72 h.
Assay [8] relates to A-431. In words: Cytotoxicity against human A431 cells after 72 hrs by MTT assay. The settings on record: A-431, 72 h.
Assay [9] can be described thus: Cytotoxicity against human BE(2)-C cells after 72 hrs by MTT assay.
The test system of assay [10] is DU-145. Nature of the assay: Cytotoxicity against human DU145 cells after 72 hrs by MTT assay. The settings on record: DU-145, 72 h.

One may read the GI50 as the concentration at which growth is held to half of that of the control. Regarding `N#C/C(=C\c1ccc(O)cc1)c1ccc(Cl)c(Cl)c1`, the GI50 in assay [1] was 36 µM; in assay [2], 23 µM; in assay [3], 20 µM; in assay [4], 30 µM; in assay [5], 28 µM; in assay [6] it was 26 µM. In addition, the GI50 in assay [7] amounted to 21 µM; in assay [8], 21 µM; in assay [9], 22 µM; in assay [10] it was 45 µM.

`N#C/C(=C\c1ccc(Br)cc1)c1ccc(Cl)c(Cl)c1`: the GI50 in assay [1] was 22 µM; in assay [2], 16 µM; in assay [3], 20 µM; in assay [4], 20 µM; in assay [5] it was 21 µM; in assay [6] it was 21 µM. For the same compound, the GI50 in assay [7] was found to be 22 µM; in assay [8] it was 20 µM; in assay [9] it was 21 µM; in assay [10], 26 µM.

`N#C/C(=C\c1ccc(F)cc1)c1ccc(Cl)c(Cl)c1` returned a GI50 in assay [5] of 11 µM.

In the case of `N#C/C(=C/c1ccc(Cl)cc1)C(=O)c1ccc[nH]1`, the GI50 in assay [1] was found to be 68 µM; in assay [2] it was 84 µM; in assay [3], 75 µM; in [4], 54 µM; in [5], 59 µM; in assay [6] it was 38 µM. The GI50 in assay [7] turned out to be 53 µM; in assay [8], 31 µM; in assay [9] it was 63 µM; in assay [10], 32 µM.

Take `CCCC/C=C(\C#N)c1ccc(Cl)c(Cl)c1`: the GI50 in assay [1] was 68 µM; in assay [2] it was 49 µM; in assay [3], 24 µM; in [4], 53 µM; in [5], 95 µM; in assay [6] it was 100 µM. The GI50 came to 70 µM in [7], 88 µM in assay [8], 73 µM in assay [9] and 87 µM in assay [10].

In the case of `N#C/C(=C\c1ccc2ccccc2c1)c1ccc(Cl)c(Cl)c1`, the concentration for 50% growth inhibition (GI50) turned out to be 2.3 µM in assay [1]; 1.5 µM in assay [2]; 1.8 µM in assay [3]; 1.6 µM in assay [4]; 2.1 µM in [5]; 1.7 µM in assay [6]. The GI50 was determined as 2.3 µM in assay [7], 1.8 µM in assay [8], 1.9 µM in assay [9] and 2.7 µM in assay [10].

On to `N#C/C(=C/c1ccc2ccccc2c1)C(=O)c1ccc[nH]1`, for which the GI50 in assay [1] is less than 10 µM; in assay [2], 12 µM; in assay [3], less than 10 µM; in assay [4] it was less than 10 µM; in assay [5] it was less than 10 µM; in assay [6] it was less than 10 µM. Moreover, the GI50 in [7], in assay [8], in assay [9] and in assay [10] was less than 10 µM each time.

Turning to `N#C/C(=C\c1ccc[nH]1)c1ccc([N+](=O)[O-])cc1`, the GI50 in assay [1] was 24 µM; in assay [2], 18 µM; in assay [3], 18 µM; in assay [4] it was 25 µM; in assay [5] it was 34 µM; in assay [6], 32 µM. In addition, the GI50 came to 24 µM in assay [7], 27 µM in assay [8], 22 µM in assay [9] and 26 µM in assay [10].

For the compound `N#CC(Cc1ccc[nH]1)c1ccc([N+](=O)[O-])cc1` (configuration not stated), the GI50 in [1] came out at 70 µM; in [2], 37 µM; in assay [3] it was 29 µM; in assay [4], 67 µM; in [5], 82 µM; in assay [6], 64 µM. Further, the concentration for 50% growth inhibition (GI50) in assay [7] was found to be 87 µM; in assay [8], 78 µM; in [9], 65 µM; in assay [10], 90 µM.

In the case of `N#C/C(=C\c1ccc[nH]1)c1ccc(F)cc1`, the GI50 stood at 24 µM in assay [1]; 15 µM in assay [2]; 25 µM in assay [3]; 31 µM in assay [4]; 63 µM in assay [5]; 52 µM in [6]. The GI50 in assay [7] was found to be 30 µM; in [8], 37 µM; in assay [9], 43 µM; in assay [10], 59 µM.

In the case of `N#CC(Cc1ccc[nH]1)c1ccc(Cl)cc1` (configuration not stated), the GI50 amounted to 53 µM in [1]; 26 µM in [2]; 26 µM in assay [3]; 37 µM in assay [4]; 58 µM in assay [5]; 58 µM in assay [6]. In addition, the GI50 in assay [7] worked out at 52 µM; in assay [8], 58 µM; in assay [9], 45 µM; in assay [10], 60 µM.

With `COc1ccc(/C=C(/C#N)C(=O)c2ccc[nH]2)cc1`, the GI50 in [1] was less than 10 µM; in assay [2], 22 µM; in assay [3] it was less than 10 µM; in assay [4], less than 10 µM; in [5], less than 10 µM; in assay [6] it was 24 µM. For the same compound, the GI50 in assay [7] was less than 10 µM; in assay [8], 13 µM; in [9], less than 10 µM; in assay [10] it was less than 10 µM.

In the case of `N#C/C(=C\c1ccc[nH]1)c1ccccc1`, the GI50 worked out at 26 µM in [1]; 17 µM in [2]; 25 µM in assay [3]; 41 µM in assay [4]; 81 µM in assay [5]; 81 µM in [6]. Moreover, the GI50 in assay [7] is 46 µM; in assay [8] it was 57 µM; in assay [9], 61 µM; in assay [10] it was more than 100 µM.

Consider `Cc1ccc(/C=C(/C#N)C(=O)c2ccc[nH]2)cc1`, for which the GI50 in assay [1] was 14 µM; in assay [2], 39 µM; in [3], 19 µM; in assay [4] it was 14 µM; in assay [5], 27 µM; in assay [6], 11 µM. The GI50 in assay [7] is 20 µM; in [8] it was less than 10 µM; in [9], 11 µM; in [10] it was less than 10 µM.

Take `COc1ccc(/C=C(\C#N)c2ccc(Cl)c(Cl)c2)cc1`: halving of growth in [5] (GI50) required 0.7 µM.

For `N#C/C(=C\c1ccc[nH]1)c1ccc(Cl)cc1`, the GI50 in [1] turned out to be 22 µM; in [2], 4 µM; in assay [3] it was 18 µM; in assay [4], 18 µM; in [5], 38 µM; in [6], 19 µM. The GI50 in assay [7] amounted to 20 µM; in assay [8], 23 µM; in assay [9] it was 21 µM; in assay [10], 37 µM.

As to `N#C/C(=C\c1ccncc1)c1ccc(Cl)c(Cl)c1`, the GI50 stood at 18 µM in assay [1]; 15 µM in [2]; 18 µM in assay [3]; 18 µM in [4]; 22 µM in [5]; 9.4 µM in assay [6]. Also, the GI50 came out at 22 µM in [7], 26 µM in assay [8], 16 µM in [9] and 24 µM in assay [10].

For `CC(=O)Oc1ccc(/C=C(\C#N)c2ccc(Cl)c(Cl)c2)cc1`, the GI50 came out at 27 µM in assay [1]; 25 µM in assay [2]; 18 µM in assay [3]; 18 µM in assay [4]; 38 µM in [5]; 33 µM in [6]. Further, the 50% growth inhibitory concentration (GI50) is 21 µM in assay [7], 25 µM in [8], 22 µM in [9] and 47 µM in [10].

Consider `Cc1ccc(/C=C(\C#N)c2ccc(Cl)c(Cl)c2)cc1`, for which the GI50 is 2.3 µM in [1]; 2.2 µM in assay [2]; 2 µM in assay [3]; 1.6 µM in [4]; 2 µM in assay [5]; 2.1 µM in [6]. In addition, the GI50 is 2.1 µM in assay [7], 1.8 µM in [8], 2.2 µM in [9] and 2.2 µM in [10].

In the case of `N#C/C(=C\c1cc(O)cc(O)c1)c1ccc(Cl)c(Cl)c1`, the GI50 in [1] was 90 µM; in assay [2], 28 µM; in assay [3], 93 µM; in assay [4] it was more than 100 µM; in assay [5] it was more than 100 µM; in [6], more than 100 µM. For the same compound, the concentration for 50% growth inhibition (GI50) in assay [7] was 95 µM; in assay [8] it was 88 µM; in assay [9], more than 100 µM; in assay [10], more than 100 µM.

On to `N#C/C(=C/c1ccc(Cl)c(Cl)c1)C(=O)c1ccc[nH]1`, for which the GI50 in assay [1] is less than 10 µM; in assay [2], 14 µM; in assay [3], less than 10 µM; in assay [4], less than 10 µM; in assay [5], less than 10 µM; in [6] it was less than 10 µM. Besides, the GI50 in assay [7] is 10 µM; in [8], less than 10 µM; in assay [9], 14 µM; in assay [10] it was less than 10 µM.

Take `N#C/C(=C/c1ccc(O)cc1)C(=O)c1ccc[nH]1`: the GI50 in assay [1] is less than 10 µM; in assay [2], 15 µM; in assay [3], less than 10 µM; in [4], less than 10 µM; in [5], 11 µM; in assay [6] it was less than 10 µM. Moreover, the GI50 in [7], in assay [8], in assay [9] and in [10] was less than 10 µM each time.

For the compound `N#CC(Cc1ccc[nH]1)c1ccc(F)cc1` (configuration not stated), the GI50 in assay [1] was determined as 78 µM; in assay [2] it was 65 µM; in [3], 69 µM; in [4] it was 73 µM; in assay [5] it was 90 µM; in assay [6], 88 µM. Besides, the GI50 in assay [7] was 86 µM; in [8], 89 µM; in [9] it was 75 µM; in assay [10] it was 91 µM.

As to `N#C/C(=C\c1ccc(Cl)cc1)c1ccc(Cl)c(Cl)c1`, the GI50 is 5 µM in [1]; 4.3 µM in assay [2]; 4 µM in assay [3]; 2.5 µM in [4]; 4 µM in assay [5]; 4.8 µM in [6]. Moreover, the GI50 is 6.1 µM in assay [7], 4.3 µM in assay [8], 4.1 µM in [9] and 12 µM in assay [10].
